Test results taken from patent US20100105602A1, “TREATMENT OF INT[…] INFECTIONS” (Novozymes A/S, priority 2008, published 2010).

Columns and labels:
[1] = test system: Staphylococcus aureus MRSA (1-15479) in THP-1 macrophages; experiment: In vitro intracellular activity in infected THP-1 macrophages, MRSA (1-15479); assay type: cell-based; conditions: for Cstatic / Emax (95% CI): MRSA (1-15479), THP-1 macrophages, 24 hours
Protocol: (§1) For studies of Defensin2114, […] of S. aureus were used: ATCC25923 (MSSA), MRSA (clinical septicaemia isolate, Statens Serum Institute, ref. no. 1-15479) and VRSA2 (Pennsylvania HIP 11983).
(§2) Overnight culture of bacteria was opsonized for 45 min with human serum (AB positive, Lonza, USA). Afterwards the bacteria were tittered using a spectrophotometer (CECIL 2040) and THP-1 macrophages were counted and then infected with 4 bacteria/cell. THP-1 cells were cultured in RPMI 1640 medium supplemented with fetal calf serum.
(§3) The bacteria were incubated with cells for 1 hour at 37° C., CO2 5%, to allow phagocytosis.
(§4) After 1 hour of incubation the infected cells were incubated 45 min with Gentamicin (50 micrograms/mL) to eradicate remaining non-phagocytosed bacteria. To remove Gentamicin after incubation cells were washed 3× with PBS. After the third wash, cells were re-suspended in RPMI 1640 medium (+10% fetal calf serum) and Plectasin or Defensin2114 was added at desired concentrations (0-128×MIC). One sample was incubated with Gentamicin at 1×MIC for control of intracellular growth. In studies of Defensin2114 the activity was compared to that of vancomycin and daptomycin.
(§5) Cells were incubated in 6-well plates for 24 hours at 37° C., CO2 5%.
(§6) After incubation cells were washed in PBS and subsequently re-suspended in sterile water to release intracellular bacteria.
(§7) Samples were diluted regarding to the expected amount of CFU and spread on TSA plates and incubated at 35° C. overnight. After 24 hours incubation the CFU were counted.
(§8) The samples may be stored at −20° C. for up to one week. Samples were sonicated and proteins titered as described by Lowry et al. hereby obtaining results as CFU/mg protein. All samples were tested in triplicates.
(§9) In vitro intracellular dose-response studies: For analysis of dose-effect relationships, the Hill-equation (slope=1) was employed to calculate the maximal relative efficacy, Emax, static concentration (Cstatic) and goodness-of-fit. These parameters were determined using non-linear regression.

[2] = test system: Staphylococcus aureus ATCC25923 (MSSA) in THP-1 macrophages; experiment: In vitro intracellular activity in infected THP-1 macrophages, S. aureus ATCC25923; assay type: cell-based; conditions: for Emax (95% CI): decrease in log CFU after 24 hours compared to original inoculum
Protocol: (§10) For studies of Plectasin, two strains of S. aureus were applied: ATCC25923 (MSSA) and E33235 (MSSA, axil, clinical isolate from Statens Serum Institute, Denmark).
as §1, §2, §3, §4, §5, §6, §7, §8, §9

[3] = test system: Staphylococcus aureus VRSA2 (Pennsylvania HIP 11983) in THP-1 macrophages; experiment: In vitro intracellular activity in infected THP-1 macrophages, VRSA2; assay type: cell-based; conditions: for Cstatic / Emax (95% CI): VRSA2, THP-1 macrophages, 24 hours
Protocol: as §1, §2, §3, §4, §5, §6, §7, §8, §9

[4] = test system: Staphylococcus aureus E33235; experiment: Mouse peritonitis model, intra- and extracellular effect; assay type: in vivo, mice
Protocol: This Example presents an in vivo study of the efficacy of Plectasin against intracellular Staphylococcus aureus E33235 in an animal model of infection (peritonitis), including assessment of both intra- and extracellular effect. Staphylococcus aureus E33235 is a clinically isolated strain obtainable from Statens Serum Institut, Denmark.
Staphylococcus aureus E33235 was spread on 5% blood plates and incubated overnight at 37° C. at ambient air. A 10% w/v Mucin solution was prepared in NaCl. The solution was sterilized and pH adjusted to pH 7.0.
Colonies of Staphylococcus aureus were suspended in saline to approx. 10^8 CFU/mL (OD=0.13). A 1:1 dilution with the 10% Mucin stock solution was prepared making a solution of 5% Mucin and 5×10^7 CFU/mL.
A solution of 50 mg/mL lysostaphin was prepared in HBSS (Hanks Balanced Salt Solution).
Two hours before treatment (T=0) the mice were inoculated i.p. with 0.5 mL Staphylococcus aureus suspension (with 5% Mucin).
The injected dose volume was 0.6 or 0.3 mL/animal. The first dose was injected two hours after inoculation (T=2).
At T=2 and T=6 hours control animals were sacrificed and peritoneal wash performed. 24 hours after first treatment, the remaining treated animals were sacrificed. Peritoneal wash was performed after sacrifice of animals by cervical dislocation.
Negative control (cell free): Inoculum at 10^8 CFU/mL of S. aureus E 33235 (OD=0.13) in saline was prepared just before the last separation assay of the day. The negative control was handled exactly as the test samples. Microscopy and cell-count of the negative control are not shown. Each sample was handled as described in Table 6.
CFU counts from peritoneal fluid from treated animals were compared to PK/PD parameters to assess the correlation between intra- and extracellular effect of Plectasin to Cpeak, T>MIC and AUC/MIC.
Correlation (Hills) between the most predictive PK/PD-parameter. Effect was determined as the decrease in CFU in the peritoneal fluid 24 hours after the first treatment. Parameters were estimated by multiple regression analysis.

[5] = test system: Staphylococcus aureus E33235 (MSSA) in THP-1 macrophages; experiment: In vitro intracellular activity in infected THP-1 macrophages, S. aureus E33235; assay type: cell-based; conditions: S. aureus E33235, THP-1 macrophages, 24 hours
Protocol: as §10, §2, §3
After 1 hour of incubation the infected cells were incubated 45 min with Gentamicin (50 micrograms/mL) to eradicate remaining non-phagocytosed bacteria. To remove Gentamicin after incubation cells were washed 3× with PBS. […]
Samples were diluted regarding to the expected amount of CFU and spread on TSA plates and incubated at 35° C. overnight. After 24 hours incubation the CFU were counted. […]
as §9

[6] = Kinetics study, serum, and PK/PD parameters of dosing regimens; assay type: in vivo, mice; design: AUC(free) / Peak / Cpeak: unit not given here; conditions: for AUC(free): free serum concentrations
Protocol: Animals were dosed from 4.25-34 mg/kg
The serum was separated and stored at −20° C. until analysis by LCMSMS using internal and external standards. Serum binding was calculated to 90%.
Pharmacokinetic parameters were determined through intrapolation from free serum concentrations using GraphPad Prism.

[7] = S. aureus ATCC25923, THP-1 macrophages, 24 hours, no apparent growth
[8] = S. aureus ATCC25923, THP-1 macrophages
[9] = b.i.d. treatment with 34 mg/kg, peritoneal fluid, 24 hours after first treatment
[10] = S. aureus ATCC25923, THP-1 macrophages, 24 hours, Table 1

## CCCCCCCCCC(=O)N[C@@H](Cc1c[nH]c2ccccc12)C(=O)N[C@H](CC(N)=O)C(=O)N[C@@H](CC(=O)O)C(=O)N[C@@H]1C(=O)NCC(=O)N[C@@H](CCCN)C(=O)N[C@@H](CC(=O)O)C(=O)N[C@H](C)C(=O)N[C@@H](CC(=O)O)C(=O)NCC(=O)N[C@H](CO)C(=O)N[C@@H]([C@H](C)CC(=O)O)C(=O)N[C@@H](CC(=O)c2ccccc2N)C(=O)O[C@@H]1C [Daptomycin, reference compound]
[1]
  Cstatic: 1.8 ×MIC
  Emax (95% CI): −0.85 log CFU
[2]; [7]
  Cstatic: 0.6 ×MIC
[2]; [8]
  Emax (95% CI): −1.00 log CFU
[3]
  Cstatic: 1.3 ×MIC
  Emax (95% CI): −0.29 log CFU

## Defensin2114: defensin polypeptide shown as SEQ ID NO: 1; synthetic defensin derived from Plectasin (GFGCNGPWNEDDLRCHNHCKSIKGYKGGYCAKGGFVCKCY)
[1]
  Cstatic: 1.1 ×MIC
  Emax (95% CI): −0.93 log CFU
[1]; MRSA, P<0.01
  Emax comparison, one-way ANOVA (Tukeys test): significantly lower Emax value than vancomycin
[2]; ATCC25923
  Emax comparison, one-way ANOVA (Tukeys test): significantly lower Emax value than both daptomycin and vancomycin
[2]; [7]
  Cstatic: 0.8 ×MIC
[2]; [8]
  Emax (95% CI): −1.51 log CFU
[3]; VRSA
  Emax comparison, one-way ANOVA (Tukeys test): No difference in Emax value between Defensin2114 and daptomycin
[3]
  Cstatic: 2.3 ×MIC
  Emax (95% CI): −0.22 log CFU

## CC[C@H](C)[C@@H]1NC(=O)[C@H](CO)NC(=O)[C@H](CCCCN)NC(=O)[C@@H]2CSSC[C@@H](C(=O)N[C@@H](Cc3ccc(O)cc3)C(=O)O)NC(=O)[C@H](CCCCN)NC(=O)[C@@H]3CSSC[C@H](NC(=O)[C@H](CCC(N)=O)NC(=O)[C@H](CCSC)NC(=O)[C@H](CC(=O)O)NC(=O)[C@H](CC(=O)O)NC(=O)[C@H](CCC(=O)O)NC(=O)[C@H](CC(=O)O)NC(=O)[C@H](Cc4c[nH]c5ccccc45)NC(=O)[C@@H]4CCCN4C(=O)CNC(=O)[C@H](CC(N)=O)NC(=O)[C@@H](NC(=O)CNC(=O)[C@H](Cc4ccccc4)NC(=O)CN)CSSC[C@H](NC(=O)[C@H](Cc4ccc(O)cc4)NC(=O)CNC(=O)CNC(=O)[C@H](CCCCN)NC(=O)[C@H](Cc4ccc(O)cc4)NC(=O)CNC(=O)[C@H](CCCCN)NC1=O)C(=O)N[C@@H](C)C(=O)N[C@@H](CCCCN)C(=O)NCC(=O)NCC(=O)N[C@@H](Cc1ccccc1)C(=O)N[C@@H](C(C)C)C(=O)N3)C(=O)N[C@@H](Cc1c[nH]cn1)C(=O)N[C@@H](CC(N)=O)C(=O)N[C@@H](Cc1c[nH]cn1)C(=O)N2 [Plectasin]
[4]; [9]
  Max Δ log Decrease in CFU Extracellularly: −2.55 (SD: 0.150) Δ log
  Max Δ log Decrease in CFU Intracellularly: −1.25 (SD: 0.058) Δ log
[4]; s.c. treatment, S. aureus E33235 i.p.
  effect in the mouse peritonitis model: showed both intra- and extracellular effect
[5]
  Cstatic: 0.6 ×MIC
  Emax (CI): −0.97 log CFU
[6]; dose 4.25 mg/kg
  Peak: 1.61
  AUC(free): 1.901
[6]; dose 8.5 mg/kg
  Peak: 2.32
  AUC(free): 3.955
[6]; dose 17 mg/kg
  Peak: 4.95
  AUC(free): 8
[6]; dose 34 mg/kg
  Peak: 5.99
  AUC(free): 13.25
[6]; mouse, serum, LCMSMS, read-out: Serum binding (converted)
  fraction unbound: 0.1
[6]; regimen 1: 34 mg/kg, 1 dose in 24 hours
  Cpeak: 5.99
[6]; regimen 2: 17 mg/kg, 1 dose in 24 hours
  Cpeak: 4.95
[6]; regimen 3: 8.5 mg/kg, 1 dose in 24 hours
  Cpeak: 2.32
[6]; regimen 4: 4.25 mg/kg, 1 dose in 24 hours
  Cpeak: 1.61
[6]; regimen 5: 17 mg/kg, 2 doses in 24 hours
  Cpeak: 5.99
[6]; regimen 6: 8.5 mg/kg, 2 doses in 24 hours
  Cpeak: 2.32
[6]; regimen 7: 34 mg/kg, 3 doses in 24 hours
  Cpeak: 5.99
[6]; regimen 8: 4.25 mg/kg, 3 doses in 24 hours
  Cpeak: 1.61
[6]; regimen 9: 8.5 mg/kg, 4 doses in 24 hours
  Cpeak: 2.32
[6]; regimen 10: 8.5 mg/kg, 6 doses in 24 hours
  Cpeak: 2.32
[2]; [10]
  Cstatic: 0.6 ×MIC
  Emax (CI): −1.35 log CFU

## CN[C@H](CC(C)C)C(=O)N[C@H]1C(=O)N[C@@H](CC(N)=O)C(=O)N[C@H]2C(=O)N[C@H]3C(=O)N[C@H](C(=O)N[C@H](C(=O)O)c4cc(O)cc(O)c4-c4cc3ccc4O)[C@H](O)c3ccc(c(Cl)c3)Oc3cc2cc(c3O[C@@H]2O[C@H](CO)[C@@H](O)[C@H](O)[C@H]2O[C@H]2C[C@](C)(N)[C@H](O)[C@H](C)O2)Oc2ccc(cc2Cl)[C@H]1O [Vancomycin, reference compound]
[1]
  Cstatic: 6.2 ×MIC
  Emax (95% CI): −0.66 log CFU
[2]; [7]
  Cstatic: 2.9 ×MIC
[2]; [8]
  Emax (95% CI): −0.64 log CFU
